From publication PMC8333062, “Chemical tools for epichaperome-mediated interactome dysfunctions of the central nervous system” (Nature Communications, 2021)

What was measured:
Assay in all cases: scanEDGE off-target screen
Assay type in all cases: binding
[1] = target: T1, 97 kinases (Homo sapiens, UniProt P48730); settings: read-out: %Ctrl CSNK1D
T1 construct: purchased Ambit Biosciences (scanEDGE / KINOMEscan) scanEDGE 97 kinase panel; host or cells: T7 phage in E. coli BL21-derived host; remaining kinases in HEK-293 cells

[2] = target: T2, 97 kinases (Homo sapiens, UniProt P00533); settings: read-out: %Ctrl EGFR
T2 construct: purchased Ambit Biosciences (scanEDGE / KINOMEscan) scanEDGE 97 kinase panel; host or cells: T7 phage in E. coli BL21-derived host; remaining kinases in HEK-293 cells

[3] = target: T3, 97 kinases (Homo sapiens, UniProt P43403); settings: read-out: %Ctrl ZAP70
T3 construct: purchased Ambit Biosciences (scanEDGE / KINOMEscan) scanEDGE 97 kinase panel; host or cells: T7 phage in E. coli BL21-derived host; remaining kinases in HEK-293 cells

[4] = target: T4, 97 kinases (Homo sapiens, UniProt P50750); settings: read-out: %Ctrl CDK9
T4 construct: purchased Ambit Biosciences (scanEDGE / KINOMEscan) scanEDGE 97 kinase panel; host or cells: T7 phage in E. coli BL21-derived host; remaining kinases in HEK-293 cells

[5] = target: T5, 97 kinases (Homo sapiens, UniProt P27361); settings: read-out: %Ctrl ERK1
T5 construct: purchased Ambit Biosciences (scanEDGE / KINOMEscan) scanEDGE 97 kinase panel; host or cells: T7 phage in E. coli BL21-derived host; remaining kinases in HEK-293 cells

[6] = target: T6, 97 kinases (Homo sapiens, UniProt O15111); settings: read-out: %Ctrl IKK-alpha
T6 construct: purchased Ambit Biosciences (scanEDGE / KINOMEscan) scanEDGE 97 kinase panel; host or cells: T7 phage in E. coli BL21-derived host; remaining kinases in HEK-293 cells

[7] = target: T7, 97 kinases (Homo sapiens, UniProt P31751); settings: read-out: %Ctrl AKT2
T7 construct: purchased Ambit Biosciences (scanEDGE / KINOMEscan) scanEDGE 97 kinase panel; host or cells: T7 phage in E. coli BL21-derived host; remaining kinases in HEK-293 cells

[8] = target: T8, 97 kinases (Homo sapiens, UniProt P36888); settings: read-out: %Ctrl FLT3
T8 construct: purchased Ambit Biosciences (scanEDGE / KINOMEscan) scanEDGE 97 kinase panel; host or cells: T7 phage in E. coli BL21-derived host; remaining kinases in HEK-293 cells

[9] = target: T9, 97 kinases (Homo sapiens, UniProt O96013); settings: read-out: %Ctrl PAK4
T9 construct: purchased Ambit Biosciences (scanEDGE / KINOMEscan) scanEDGE 97 kinase panel; host or cells: T7 phage in E. coli BL21-derived host; remaining kinases in HEK-293 cells
T9 sequence (O96013 whole entry): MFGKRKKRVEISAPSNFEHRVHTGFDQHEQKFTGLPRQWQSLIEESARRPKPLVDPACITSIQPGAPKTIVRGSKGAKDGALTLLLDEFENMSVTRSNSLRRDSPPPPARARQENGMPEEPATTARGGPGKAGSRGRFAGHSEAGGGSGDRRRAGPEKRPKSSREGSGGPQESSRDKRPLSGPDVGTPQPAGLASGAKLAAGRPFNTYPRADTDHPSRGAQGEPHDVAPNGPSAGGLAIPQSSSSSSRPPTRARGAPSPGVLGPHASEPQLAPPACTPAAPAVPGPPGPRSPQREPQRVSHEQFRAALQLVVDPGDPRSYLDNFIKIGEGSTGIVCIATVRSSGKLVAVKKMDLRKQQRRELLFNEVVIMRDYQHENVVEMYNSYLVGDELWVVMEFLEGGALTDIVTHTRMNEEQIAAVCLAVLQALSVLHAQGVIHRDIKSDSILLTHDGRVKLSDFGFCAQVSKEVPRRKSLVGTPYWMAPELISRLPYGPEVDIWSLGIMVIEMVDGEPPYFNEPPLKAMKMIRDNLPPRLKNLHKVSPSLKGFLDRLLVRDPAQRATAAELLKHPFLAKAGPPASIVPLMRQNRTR

[10] = target: T10, 97 kinases (Homo sapiens, UniProt P04049); settings: read-out: %Ctrl RAF1
T10 construct: purchased Ambit Biosciences (scanEDGE / KINOMEscan) scanEDGE 97 kinase panel; host or cells: T7 phage in E. coli BL21-derived host; remaining kinases in HEK-293 cells

[11] = target: T11, 97 kinases (Homo sapiens, UniProt P48736); settings: read-out: %Ctrl PIK3CG
T11 construct: purchased Ambit Biosciences (scanEDGE / KINOMEscan) scanEDGE 97 kinase panel; host or cells: T7 phage in E. coli BL21-derived host; remaining kinases in HEK-293 cells

[12] = target: T12, 97 kinases (Homo sapiens, UniProt P36507); settings: read-out: %Ctrl MEK2
T12 construct: purchased Ambit Biosciences (scanEDGE / KINOMEscan) scanEDGE 97 kinase panel; host or cells: T7 phage in E. coli BL21-derived host; remaining kinases in HEK-293 cells

[13] = target: T13, 97 kinases (Homo sapiens, UniProt P17612); settings: read-out: %Ctrl PKAC-alpha
T13 construct: purchased Ambit Biosciences (scanEDGE / KINOMEscan) scanEDGE 97 kinase panel; host or cells: T7 phage in E. coli BL21-derived host; remaining kinases in HEK-293 cells

[14] = target: T14, 97 kinases (Homo sapiens, UniProt P21802); settings: read-out: %Ctrl FGFR2
T14 construct: purchased Ambit Biosciences (scanEDGE / KINOMEscan) scanEDGE 97 kinase panel; host or cells: T7 phage in E. coli BL21-derived host; remaining kinases in HEK-293 cells

[15] = target: T15, 97 kinases (Homo sapiens, UniProt Q8NI60); settings: read-out: %Ctrl ADCK3
T15 construct: purchased Ambit Biosciences (scanEDGE / KINOMEscan) scanEDGE 97 kinase panel; host or cells: T7 phage in E. coli BL21-derived host; remaining kinases in HEK-293 cells
T15 sequence (Q8NI60 163-647): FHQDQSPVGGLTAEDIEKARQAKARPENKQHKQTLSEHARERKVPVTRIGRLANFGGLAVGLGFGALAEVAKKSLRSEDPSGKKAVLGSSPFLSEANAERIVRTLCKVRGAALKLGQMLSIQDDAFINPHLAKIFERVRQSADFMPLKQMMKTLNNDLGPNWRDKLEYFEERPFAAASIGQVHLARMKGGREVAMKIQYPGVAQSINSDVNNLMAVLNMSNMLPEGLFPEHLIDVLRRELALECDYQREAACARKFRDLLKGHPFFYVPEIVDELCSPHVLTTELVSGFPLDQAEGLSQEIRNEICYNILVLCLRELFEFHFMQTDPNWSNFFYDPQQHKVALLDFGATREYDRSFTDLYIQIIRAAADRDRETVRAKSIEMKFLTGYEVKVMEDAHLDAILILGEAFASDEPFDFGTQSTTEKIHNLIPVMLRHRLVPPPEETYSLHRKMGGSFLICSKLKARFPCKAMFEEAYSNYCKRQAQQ

[16] = target: T16, 97 kinases (Homo sapiens, UniProt P15056); settings: read-out: %Ctrl BRAF
T16 construct: purchased Ambit Biosciences (scanEDGE / KINOMEscan) scanEDGE 97 kinase panel; host or cells: T7 phage in E. coli BL21-derived host; remaining kinases in HEK-293 cells
T16 sequence (P15056 whole entry): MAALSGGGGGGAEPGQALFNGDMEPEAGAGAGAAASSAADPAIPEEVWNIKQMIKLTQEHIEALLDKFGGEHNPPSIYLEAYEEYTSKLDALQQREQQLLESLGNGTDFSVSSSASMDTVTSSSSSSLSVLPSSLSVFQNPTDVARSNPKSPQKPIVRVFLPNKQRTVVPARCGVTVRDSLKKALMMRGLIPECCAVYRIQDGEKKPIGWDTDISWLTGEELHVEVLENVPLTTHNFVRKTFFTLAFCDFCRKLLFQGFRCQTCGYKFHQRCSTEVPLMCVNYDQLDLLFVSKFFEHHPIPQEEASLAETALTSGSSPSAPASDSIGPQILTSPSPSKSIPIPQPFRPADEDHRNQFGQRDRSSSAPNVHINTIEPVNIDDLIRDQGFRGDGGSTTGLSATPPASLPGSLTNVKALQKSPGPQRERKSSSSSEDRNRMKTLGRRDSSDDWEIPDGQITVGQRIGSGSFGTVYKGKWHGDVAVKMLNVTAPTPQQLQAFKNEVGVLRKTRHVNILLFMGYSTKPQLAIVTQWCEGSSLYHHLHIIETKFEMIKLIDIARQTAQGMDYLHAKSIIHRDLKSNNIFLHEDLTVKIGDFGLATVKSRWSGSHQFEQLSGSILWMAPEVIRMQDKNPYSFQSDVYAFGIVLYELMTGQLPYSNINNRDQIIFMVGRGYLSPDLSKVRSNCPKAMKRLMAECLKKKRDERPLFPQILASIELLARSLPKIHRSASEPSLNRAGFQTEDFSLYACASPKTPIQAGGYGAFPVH

[17] = target: T17, 97 kinases (Homo sapiens, UniProt P53350); settings: read-out: %Ctrl PLK1
T17 construct: purchased Ambit Biosciences (scanEDGE / KINOMEscan) scanEDGE 97 kinase panel; host or cells: T7 phage in E. coli BL21-derived host; remaining kinases in HEK-293 cells

[18] = target: T18, 97 kinases (Homo sapiens, UniProt Q9HBH9); settings: read-out: %Ctrl MKNK2
T18 construct: purchased Ambit Biosciences (scanEDGE / KINOMEscan) scanEDGE 97 kinase panel; host or cells: T7 phage in E. coli BL21-derived host; remaining kinases in HEK-293 cells

[19] = target: T19, 97 kinases (Homo sapiens, UniProt Q13153); settings: read-out: %Ctrl PAK1
T19 construct: purchased Ambit Biosciences (scanEDGE / KINOMEscan) scanEDGE 97 kinase panel; host or cells: T7 phage in E. coli BL21-derived host; remaining kinases in HEK-293 cells
T19 sequence (Q13153 whole entry): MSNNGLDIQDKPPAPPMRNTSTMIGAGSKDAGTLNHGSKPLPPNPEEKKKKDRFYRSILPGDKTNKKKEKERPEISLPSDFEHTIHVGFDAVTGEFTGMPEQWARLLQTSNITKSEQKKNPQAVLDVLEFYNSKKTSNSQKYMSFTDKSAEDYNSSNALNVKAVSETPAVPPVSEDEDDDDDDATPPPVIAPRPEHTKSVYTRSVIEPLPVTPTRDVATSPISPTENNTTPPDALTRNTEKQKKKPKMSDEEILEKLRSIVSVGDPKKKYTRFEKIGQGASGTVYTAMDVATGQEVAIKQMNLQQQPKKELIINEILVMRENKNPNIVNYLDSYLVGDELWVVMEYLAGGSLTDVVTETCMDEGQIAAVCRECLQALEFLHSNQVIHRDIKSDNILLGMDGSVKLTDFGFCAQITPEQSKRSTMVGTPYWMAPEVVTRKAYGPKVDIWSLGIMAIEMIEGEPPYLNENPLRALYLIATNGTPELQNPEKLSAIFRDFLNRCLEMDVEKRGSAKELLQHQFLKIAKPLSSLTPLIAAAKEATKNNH

[20] = target: T20, 97 kinases (Homo sapiens, UniProt P10721, T670I/V559D); settings: read-out: %Ctrl KIT(V559D,T670I)
T20 construct: purchased Ambit Biosciences (scanEDGE / KINOMEscan) scanEDGE 97 kinase panel; host or cells: T7 phage in E. coli BL21-derived host; remaining kinases in HEK-293 cells

[21] = target: T21, 97 kinases (Homo sapiens, UniProt O15075); settings: read-out: %Ctrl DCAMKL1
T21 construct: purchased Ambit Biosciences (scanEDGE / KINOMEscan) scanEDGE 97 kinase panel; host or cells: T7 phage in E. coli BL21-derived host; remaining kinases in HEK-293 cells

[22] = target: T22, 97 kinases (Homo sapiens, UniProt P15056, V600E); settings: read-out: %Ctrl BRAF(V600E)
T22 construct: purchased Ambit Biosciences (scanEDGE / KINOMEscan) scanEDGE 97 kinase panel; host or cells: T7 phage in E. coli BL21-derived host; remaining kinases in HEK-293 cells

[23] = target: T23, 97 kinases (Homo sapiens, UniProt P16234); settings: read-out: %Ctrl PDGFRA
T23 construct: purchased Ambit Biosciences (scanEDGE / KINOMEscan) scanEDGE 97 kinase panel; host or cells: T7 phage in E. coli BL21-derived host; remaining kinases in HEK-293 cells
T23 sequence (P16234 24-1089): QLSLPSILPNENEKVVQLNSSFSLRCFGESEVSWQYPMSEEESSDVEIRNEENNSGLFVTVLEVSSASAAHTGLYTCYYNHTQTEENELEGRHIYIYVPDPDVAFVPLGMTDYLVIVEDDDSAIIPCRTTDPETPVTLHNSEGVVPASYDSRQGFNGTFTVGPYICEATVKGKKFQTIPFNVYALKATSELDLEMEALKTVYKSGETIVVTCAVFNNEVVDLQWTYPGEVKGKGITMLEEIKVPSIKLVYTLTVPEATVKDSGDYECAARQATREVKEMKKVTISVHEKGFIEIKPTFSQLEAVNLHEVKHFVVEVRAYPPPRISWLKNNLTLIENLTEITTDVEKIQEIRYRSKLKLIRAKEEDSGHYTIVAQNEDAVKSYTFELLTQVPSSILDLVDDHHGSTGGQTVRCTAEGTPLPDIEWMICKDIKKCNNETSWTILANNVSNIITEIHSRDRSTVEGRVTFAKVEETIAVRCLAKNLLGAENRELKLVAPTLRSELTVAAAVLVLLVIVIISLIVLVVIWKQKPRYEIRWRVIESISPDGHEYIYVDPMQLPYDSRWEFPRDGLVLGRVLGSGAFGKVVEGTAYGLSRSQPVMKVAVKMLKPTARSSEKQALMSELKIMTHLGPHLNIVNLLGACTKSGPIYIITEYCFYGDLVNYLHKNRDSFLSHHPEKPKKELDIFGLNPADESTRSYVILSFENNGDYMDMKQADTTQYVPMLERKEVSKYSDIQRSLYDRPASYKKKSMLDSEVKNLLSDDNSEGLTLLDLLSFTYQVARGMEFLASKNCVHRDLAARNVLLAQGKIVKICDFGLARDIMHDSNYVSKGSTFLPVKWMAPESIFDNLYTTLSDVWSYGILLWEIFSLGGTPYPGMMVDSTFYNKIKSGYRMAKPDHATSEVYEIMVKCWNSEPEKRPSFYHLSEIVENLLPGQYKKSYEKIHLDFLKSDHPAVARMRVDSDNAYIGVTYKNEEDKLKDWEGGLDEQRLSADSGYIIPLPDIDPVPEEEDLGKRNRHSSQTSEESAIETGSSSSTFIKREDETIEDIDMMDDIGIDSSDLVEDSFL

[24] = target: T24, 97 kinases (Homo sapiens, UniProt Q86UX6); settings: read-out: %Ctrl YANK3
T24 construct: purchased Ambit Biosciences (scanEDGE / KINOMEscan) scanEDGE 97 kinase panel; host or cells: T7 phage in E. coli BL21-derived host; remaining kinases in HEK-293 cells

[25] = target: T25, 97 kinases (Homo sapiens, UniProt P80192); settings: read-out: %Ctrl MLK1
T25 construct: purchased Ambit Biosciences (scanEDGE / KINOMEscan) scanEDGE 97 kinase panel; host or cells: T7 phage in E. coli BL21-derived host; remaining kinases in HEK-293 cells

[26] = target: T26, 97 kinases (Homo sapiens, UniProt P00533, L858R); settings: read-out: %Ctrl EGFR(L858R)
T26 construct: purchased Ambit Biosciences (scanEDGE / KINOMEscan) scanEDGE 97 kinase panel; host or cells: T7 phage in E. coli BL21-derived host; remaining kinases in HEK-293 cells
T26 sequence (P00533 25-1210 L858R): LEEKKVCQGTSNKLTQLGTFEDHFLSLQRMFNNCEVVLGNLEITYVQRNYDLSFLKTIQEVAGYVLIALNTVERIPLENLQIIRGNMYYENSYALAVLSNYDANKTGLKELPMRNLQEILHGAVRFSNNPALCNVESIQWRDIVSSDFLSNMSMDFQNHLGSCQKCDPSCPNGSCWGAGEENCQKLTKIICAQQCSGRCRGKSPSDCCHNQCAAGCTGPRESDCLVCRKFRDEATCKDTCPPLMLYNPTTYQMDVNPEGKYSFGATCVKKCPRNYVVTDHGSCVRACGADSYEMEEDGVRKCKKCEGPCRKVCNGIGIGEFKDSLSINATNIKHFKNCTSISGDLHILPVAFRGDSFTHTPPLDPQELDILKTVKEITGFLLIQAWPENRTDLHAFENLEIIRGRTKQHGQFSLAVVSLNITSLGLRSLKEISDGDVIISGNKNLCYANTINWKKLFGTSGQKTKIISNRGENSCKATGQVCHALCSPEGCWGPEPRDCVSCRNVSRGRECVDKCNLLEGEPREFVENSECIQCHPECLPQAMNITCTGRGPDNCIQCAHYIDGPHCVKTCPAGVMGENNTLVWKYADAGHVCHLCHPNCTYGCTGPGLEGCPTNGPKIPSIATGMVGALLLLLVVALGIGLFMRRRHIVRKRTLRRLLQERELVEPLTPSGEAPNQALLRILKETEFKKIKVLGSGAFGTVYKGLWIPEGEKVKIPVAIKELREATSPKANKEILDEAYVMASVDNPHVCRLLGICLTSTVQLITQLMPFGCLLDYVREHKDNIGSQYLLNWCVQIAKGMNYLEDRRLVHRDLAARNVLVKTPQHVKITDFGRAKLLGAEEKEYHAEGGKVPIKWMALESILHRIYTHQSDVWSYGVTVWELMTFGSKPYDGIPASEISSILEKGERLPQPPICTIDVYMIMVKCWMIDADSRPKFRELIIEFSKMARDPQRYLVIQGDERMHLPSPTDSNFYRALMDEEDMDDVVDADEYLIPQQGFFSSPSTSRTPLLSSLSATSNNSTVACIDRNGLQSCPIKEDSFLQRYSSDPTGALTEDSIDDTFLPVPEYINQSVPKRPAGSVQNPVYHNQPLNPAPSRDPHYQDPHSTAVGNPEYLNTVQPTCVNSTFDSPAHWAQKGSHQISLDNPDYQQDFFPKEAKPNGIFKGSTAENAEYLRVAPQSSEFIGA

[27] = target: T27, 97 kinases (Homo sapiens, UniProt P00519, E255K); settings: read-out: %Ctrl ABL1(E255K)-phosphorylated
T27 construct: purchased Ambit Biosciences (scanEDGE / KINOMEscan) scanEDGE 97 kinase panel; host or cells: T7 phage in E. coli BL21-derived host; remaining kinases in HEK-293 cells

[28] = target: T28, 97 kinases (Homo sapiens, UniProt P78368); settings: read-out: %Ctrl CSNK1G2
T28 construct: purchased Ambit Biosciences (scanEDGE / KINOMEscan) scanEDGE 97 kinase panel; host or cells: T7 phage in E. coli BL21-derived host; remaining kinases in HEK-293 cells
T28 sequence (P78368 whole entry): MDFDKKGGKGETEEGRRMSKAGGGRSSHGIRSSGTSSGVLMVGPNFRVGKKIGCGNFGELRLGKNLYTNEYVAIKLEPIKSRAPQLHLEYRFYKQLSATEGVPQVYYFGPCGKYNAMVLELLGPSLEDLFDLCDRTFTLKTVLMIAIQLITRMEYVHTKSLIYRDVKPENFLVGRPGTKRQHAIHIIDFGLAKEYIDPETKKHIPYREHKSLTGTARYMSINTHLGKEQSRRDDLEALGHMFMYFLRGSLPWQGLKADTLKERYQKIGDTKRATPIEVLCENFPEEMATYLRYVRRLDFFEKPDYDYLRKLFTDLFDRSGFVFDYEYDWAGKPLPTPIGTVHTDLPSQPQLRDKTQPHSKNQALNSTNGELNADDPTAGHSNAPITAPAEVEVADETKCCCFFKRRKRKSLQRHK

[29] = target: T29, 97 kinases (Homo sapiens, UniProt P10721, D816V); settings: read-out: %Ctrl KIT(D816V)
T29 construct: purchased Ambit Biosciences (scanEDGE / KINOMEscan) scanEDGE 97 kinase panel; host or cells: T7 phage in E. coli BL21-derived host; remaining kinases in HEK-293 cells

CC(C)(C)CNCCn1c(Sc2cc3c(cc2I)OCO3)nc2c(N)ncnc21 [Compound 85]
remaining binding at 10 µM [1]: 91% | remaining binding at 10 µM [2]: 96% | remaining binding at 10 µM [3]: 78% | remaining binding at 10 µM [4]: 91% | remaining binding at 10 µM [5]: 100% | remaining binding at 10 µM [6]: 99% | remaining binding at 10 µM [7]: 87% | remaining binding at 10 µM [8]: 100% | remaining binding at 10 µM [9]: 100% | remaining binding at 10 µM [10]: 74% | remaining binding at 10 µM [11]: 94% | remaining binding at 10 µM [12]: 76% | remaining binding at 10 µM [13]: 87% | remaining binding at 10 µM [14]: 63% | remaining binding at 10 µM [15]: 92% | remaining binding at 10 µM [16]: 100% | remaining binding at 10 µM [17]: 97% | remaining binding at 10 µM [18]: 93% | remaining binding at 10 µM [19]: 92% | remaining binding at 10 µM [20]: 96% | remaining binding at 10 µM [21]: 78% | remaining binding at 10 µM [22]: 97% | remaining binding at 10 µM [23]: 100% | remaining binding at 10 µM [24]: 95% | remaining binding at 10 µM [25]: 100% | remaining binding at 10 µM [26]: 93% | remaining binding at 10 µM [27]: 80% | remaining binding at 10 µM [28]: 100% | remaining binding at 10 µM [29]: 93%
